Laboratory results from patent publication US10669289B2, “Boronic acid derivatives” (MERCK PATENT GMBH, priority 2014, dated 2020).

What was measured:
[1] = target: human constitutive proteasome (Beta5) (Homo sapiens (Human), UniProt P28074); experiment: Determination of Beta5 activity (fluorescence intensity assay, Suc-LLVY-AMC); assay type: biochemical
Description: Determination of Beta5 Activity:
Measurement of Beta5 inhibition is performed in 384 well format based on fluorescence intensity assay.
(§1) Purified human constitutive proteasome (1.25 nM) and serial diluted compounds in DMSO (range of concentrations from 30 μM to 15 pM) or controls are incubated for 20 minutes or 120 minutes (long incubation) at 25° C. in assay buffer containing 50 mM Tris pH 7.4, 0.03% SDS, 1 mM EDTA and 1% DMSO. The reaction is initiated by the addition of the fluorogenic peptide substrate, Suc-LLVY-AMC (Bachem 1-1395), at a concentration of 40 μM. After 60 minutes of incubation at 37° C., fluorescence intensity is measured at λex=350 nm and λem=450 nm with a fluorescence reader (Perkin Elmer Envision reader or equivalent).
(§2) Unless indicated otherwise the results are obtained after incubation for 20 minutes.

[2] = target: human immuno proteasome (LMP7) (Homo sapiens (Human), UniProt P28062); experiment: Determination of LMP7 activity (fluorescence intensity assay, Suc-LLVY-AMC); assay type: biochemical
Description: Determination of LMP7 Activity:
Measurement of LMP7 inhibition is performed in 384 well format based on fluorescence intensity assay.
as §1, with “immuno” for “constitutive”, “(0.25” for “(1.25”
as §2

[3] = LMP7 versus Beta5, long incubation (120 min)
[4] = LMP7 versus Beta5, incubation for 20 minutes

IC50 ([1]; long incubation (120 min)) | Selectivity LMP7 vs Beta5 [2, 3] | IC50 ([2]; long incubation (120 min)) | IC50 ([1]; incubation for 20 minutes) | Selectivity LMP7 vs Beta5 [2, 4] | IC50 ([2]; incubation for 20 minutes) | Structure (SMILES)
0.5 to 5 µM | +++++ (Selectivity ≥ 150) | < 0.05 µM |  |  |  | C=CC(=O)N(CC(=O)N[C@@H](C[C@@H]1COc2ccccc21)B(O)O)c1ccccc1F [Compound No. 100, [(1R)-2-[(3S)-2,3-dihydrobenzofuran-3-yl]-1-[[2-(2-fluoro-N-prop-2-enoyl-anilino)acetyl]amino]ethyl]boronic Acid]
> 5 µM | +++++ (Selectivity ≥ 150) | 0.05 to 0.5 µM |  |  |  | C=CC(=O)N(C)CC(=O)N[C@@H](Cc1ccsc1)B(O)O [Compound No. 75, [(1R)-1-[[2-[methyl(prop-2-enoyl)amino]acetyl]amino]-2-(3-thienyl)ethyl]boronic Acid]
 |  |  | 0.5 to 5 µM | +++ (70 ≤ 100) | < 0.05 µM | C#CC(=O)N(C)CC(=O)N[C@@H](Cc1ccc(C)cc1C)B(O)O [Compound No. 11, [(1R)-2-(2,4-dimethylphenyl)-1-[[2-[methyl(prop-2-ynoyl)amino]-acetyl]amino]ethyl]boronic Acid]
> 5 µM | +++++ (Selectivity ≥ 150) | 0.05 to 0.5 µM |  |  |  | C=CC(=O)N(CC)CC(=O)N[C@@H](Cc1ccc(Cl)cc1Cl)B(O)O [Compound No. 40, [(1R)-2-(2,4-dichlorophenyl)-1-[[2-[ethyl(prop-2-enoyl)amino]acetyl]amino]ethyl]boronic Acid]
 |  |  | > 5 µM | +++++ (Selectivity ≥ 150) | 0.05 to 0.5 µM | C=CC(=O)N(CCC)CC(=O)N[C@@H](Cc1ccc(C)cc1C)B(O)O [Compound No. 6, [(1R)-2-(2,4-dimethylphenyl)-1-[[2-[prop-2-enoyl(propyl)amino]-acetyl]amino]ethyl]boronic Acid]
> 5 µM | +++++ (Selectivity ≥ 150) | < 0.05 µM |  |  |  | C=CC(=O)N(CC)CC(=O)N[C@@H](Cc1ccc2ccccc2c1)B(O)O [Compound No. 81, [(1R)-1-[[2-[ethyl(prop-2-enoyl)amino]acetyl]amino]-2-(2-naphthyl)ethyl]boronic Acid]
> 5 µM | ++++ (100 ≤ Selectivity < 150) | 0.05 to 0.5 µM |  |  |  | C=CC(=O)N1CCCC[C@@H]1C(=O)N[C@@H](Cc1ccc(Cl)cc1Cl)B(O)O [Compound No. 51, [(1R)-2-(2,4-dichlorophenyl)-1-[[(2R)-1-prop-2-enoylpiperidine-2-carbonyl]amino]ethyl]boronic Acid]
> 5 µM | ++++ (100 ≤ Selectivity < 150) | 0.05 to 0.5 µM |  |  |  | C=CC(=O)N(C)[C@@H](C)C(=O)N[C@@H](Cc1ccc(C)cc1C)B(O)O [Compound No. 49, [(1R)-2-(2,4-dimethylphenyl)-1-[[(2S)-2-[methyl(prop-2-enoyl)amino]propanoyl]amino]ethyl]boronic Acid]
 |  |  | 0.5 to 5 µM | +++++ (Selectivity ≥ 150) | < 0.05 µM | C=CC(=O)N(CC(=O)N[C@@H](Cc1ccc(C)cc1C)B(O)O)c1cccc(F)c1 [Compound No. 4, [(1R)-2-(2,4-dimethylphenyl)-1-[[2-(3-fluoro-N-prop-2-enoyl-anilino)acetyl]amino]ethyl]boronic Acid]
 |  |  | 0.5 to 5 µM | +++++ (Selectivity ≥ 150) | < 0.05 µM | C=CC(=O)N(CC(=O)N[C@@H](Cc1ccc(C)cc1C)B(O)O)c1ccccc1 [Compound No. 26, [(1R)-2-(2,4-dimethylphenyl)-1-[[2-(N-prop-2-enoylanilino)acetyl]-amino]ethyl]boronic Acid]
> 5 µM | +++++ (Selectivity ≥ 150) | < 0.05 µM |  |  |  | C=CC(=O)N(CC(=O)N[C@@H](Cc1ccsc1)B(O)O)C1CC1 [Compound No. 90, [(1R)-1-[[2-[cyclopropyl(prop-2-enoyl)amino]acetyl]amino]-2-(3-thienyl)ethyl]boronic Acid]
> 5 µM | +++++ (Selectivity ≥ 150) | < 0.05 µM |  |  |  | C=CC(=O)N(CC(=O)N[C@@H](Cc1ccsc1)B(O)O)c1cc(Cl)cc(Cl)c1 [Compound No. 95, [(1R)-1-[[2-(3,5-dichloro-N-prop-2-enoyl-anilino)acetyl]amino]-2-(3-thienyl)ethyl]boronic Acid]
> 5 µM | +++++ (Selectivity ≥ 150) | 0.05 to 0.5 µM |  |  |  | C=CC(=O)N(C)CC(=O)N[C@@H](Cc1cccc2ccccc12)B(O)O [Compound No. 80, [(1R)-1-[[2-[methyl(prop-2-enoyl)amino]acetyl]amino]-2-(1-naphthyl)ethyl]boronic Acid]
> 5 µM | +++++ (Selectivity ≥ 150) | < 0.05 µM |  |  |  | C=CC(=O)N(CC(=O)N[C@@H](Cc1ccc(C)cc1C)B(O)O)C1CC1 [Compound No. 59, [(1R)-1-[[2-[cyclopropyl(prop-2-enoyl)amino]acetyl]amino]-2-(2,4-dimethylphenyl)ethyl]boronic Acid]
> 5 µM | +++++ (Selectivity ≥ 150) | < 0.05 µM |  |  |  | C=CC(=O)N(CC(=O)N[C@@H](Cc1ccc(Cl)cc1Cl)B(O)O)C1CC1 [Compound No. 70, [(1R)-1-[[2-[cyclopropyl(prop-2-enoyl)amino]acetyl]amino]-2-(2,4-dichlorophenyl)ethyl]boronic Acid]
 |  |  | 0.5 to 5 µM | ++++ (100 ≤ Selectivity < 150) | < 0.05 µM | C=CC(=O)N(CC)CC(=O)N[C@@H](Cc1ccc(C)cc1)B(O)O [Compound No. 31, [(1R)-1-[[2-[ethyl(prop-2-enoyl)amino]acetyl]amino]-2-(p-tolyl)ethyl]-boronic Acid]
> 5 µM | ++ (50 ≤ Selectivity < 70) | 0.5 to 5 µM |  |  |  | C=CC(=O)N(C)CC(=O)N[C@H](Cc1ccsc1)B(O)O [Compound No. 73, [(1S)-1-[[2-[methyl(prop-2-enoyl)amino]acetyl]amino]-2-(3-thienyl)ethyl]boronic Acid]
 |  |  | > 5 µM | ++ (50 ≤ Selectivity < 70) | 0.5 to 5 µM | C=CC(=O)N(c1ccccc1)[C@@H](C)C(=O)N[C@@H](Cc1ccc(C)cc1C)B(O)O [Compound No. 46, [(1R)-2-(2,4-dimethylphenyl)-1-[[(2S)-2-(N-prop-2-enoylanilino)propanoyl]amino]ethyl]boronic Acid]
> 5 µM | +++++ (Selectivity ≥ 150) | < 0.05 µM |  |  |  | C=CC(=O)N(CC(=O)N[C@@H](Cc1ccc(C)cc1C)B(O)O)c1cccc(F)c1F [Compound No. 41, [(1R)-1-[[2-(2,3-difluoro-N-prop-2-enoyl-anilino)acetyl]amino]-2-(2,4-dimethylphenyl)ethyl]boronic Acid]
 |  |  | > 5 µM | +++++ (Selectivity ≥ 150) | 0.05 to 0.5 µM | C=CC(=O)N(CC)CC(=O)N[C@@H](Cc1ccc(C)c(C)c1)B(O)O [Compound No. 14, [(1R)-2-(3,4-dimethylphenyl)-1-[[2-[ethyl(prop-2-enoyl)amino]acetyl]-amino]-ethyl]boronic Acid]
> 5 µM | ++ (50 ≤ Selectivity < 70) | 0.5 to 5 µM |  |  |  | C=CC(=O)N1CCC[C@@H]1C(=O)N[C@@H](Cc1ccc(C)cc1C)B(O)O [Compound No. 53, [(1R)-2-(2,4-dimethylphenyl)-1-[[(2R)-1-prop-2-enoylpyrrolidine-2-carbonyl]amino]ethyl]boronic Acid]
 |  |  | > 5 µM | +++ (70 ≤ 100) | 0.05 to 0.5 µM | C=CC(=O)N(CC)CC(=O)N[C@@H](Cc1ccccc1)B(O)O [Compound No. 37, [(1R)-1-[[2-[ethyl(prop-2-enoyl)amino]acetyl]amino]-2-phenyl-ethyl]boronic Acid]
0.5 to 5 µM | +++++ (Selectivity ≥ 150) | < 0.05 µM |  |  |  | C=CC(=O)N(CC(=O)N[C@@H](Cc1cccs1)B(O)O)c1ccc(Br)cc1 [Compound No. 104, [(1R)-1-[[2-(4-bromo-N-prop-2-enoyl-anilino)acetyl]amino]-2-(2-thienyl)ethyl]boronic Acid]
> 5 µM | +++++ (Selectivity ≥ 150) | < 0.05 µM |  |  |  | C=CC(=O)N(CC(=O)N[C@@H](Cc1ccccc1)B(O)O)c1ccccc1F [Compound No. 44, [(1R)-1-[[2-(2-fluoro-N-prop-2-enoyl-anilino)acetyl]amino]-2-phenyl-ethyl]boronic Acid]
> 5 µM | +++++ (Selectivity ≥ 150) | < 0.05 µM |  |  |  | C=CC(=O)N(CC(=O)N[C@@H](Cc1ccc(Cl)cc1Cl)B(O)O)CC(F)(F)F [Compound No. 60, [(1R)-2-(2,4-dichlorophenyl)-1-[[2-[prop-2-enoyl(2,2,2-trifluoroethyl)amino]acetyl]amino]ethyl]boronic Acid]
